Here are results for 12 compounds from patent publication US7786141B2 (Vertex Pharmaceuticals Incorporated, priority 2004, dated 2010).

The term EC50 denotes the concentration at which the effect is half-maximal.

One experiment addresses T1, M1 muscarinic receptor (Homo sapiens, UniProt P11229).
T1 construct: expressed in transfected cells; host or cells: CHO (M1-CHO)
T1 sequence (P11229 1-460): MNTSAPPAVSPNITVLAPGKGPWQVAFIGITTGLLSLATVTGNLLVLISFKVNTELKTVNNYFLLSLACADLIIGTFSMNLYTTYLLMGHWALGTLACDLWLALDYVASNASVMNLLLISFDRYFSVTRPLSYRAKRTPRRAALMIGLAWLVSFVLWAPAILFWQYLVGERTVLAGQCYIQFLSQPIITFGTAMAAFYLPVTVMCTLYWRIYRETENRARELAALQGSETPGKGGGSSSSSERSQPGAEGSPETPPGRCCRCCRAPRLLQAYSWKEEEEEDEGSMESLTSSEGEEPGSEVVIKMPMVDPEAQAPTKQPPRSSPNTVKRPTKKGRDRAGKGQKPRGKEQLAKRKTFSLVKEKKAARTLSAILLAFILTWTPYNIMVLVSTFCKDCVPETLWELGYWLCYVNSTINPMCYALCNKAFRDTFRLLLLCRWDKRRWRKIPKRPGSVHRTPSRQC
The experiment can be described thus: Functional mobilization of intracellular calcium (FLIPR) in M1-CHO cells. Type of experiment: cell-based. Here is the method:
(§1) Functional Mobilization of Intracellular Calcium to Determine Muscarinic Receptor Activity:
(§2) CHO cells expressing muscarinic receptors (M1 to M5) are grown as monolayers in tissue culture flasks at 37° C. in a humidified atmosphere containing 5% CO2 and passaged every 3-5 days. The growth media is Dulbecco's modified eagles medium (DMEM, Gibco Cat# 12430-054), containing 25 mM Hepes and supplemented with Fetal Bovine Serum (Hyclone, cat# SH30071.03), 0.1 mM of MEM non-essential amino acids (GIBCO, Cat# 11140-050), 1 mM MEM Sodium Pyruvate (GIBCO Cat# 11360-070) and 100 units/ml of Penicillin G and 100 μg/ml of Streptomycin (GIBCO Cat# 15140-122). The recombinant muscarinic receptor cell lines are grown under antibiotic pressure with media containing 25 μg/ml zeocin and 500 μg/ml G418 (M1-CHO), 4 μg/ml puromycin, 50 μg/ml zeocin and 2.5 μg/ml blasticidin (M2 and M4-CHO) or 50 μg/ml zeocin and 4 μg/ml puromycin (M3 and M5-CHO).
(§3) Cells are harvested at 80-90% confluence using Versene (GIBCO Cat# 15040-066), collected by centrifugation and seeded 18-24 hrs prior to running the calcium assay at a density of 5,000 cells/well in back-walled, clear-bottomed 384-well plates (BD Biocoat, poly-D-lysine, Cat#356663). The day of the experiment, the cells are washed with a plate washer (Bioteck Instruments, ELX 405) using bath 1 buffer (140-mM NaCl, 4.5-mM KCl, 2-mM CaCl2, 1-mM MgCl2, 10-mM Hepes-Na, 10-mM Glucose, pH 7.4, with NaOH) containing 1 mM Probenecid. Next, the calcium dye Fluo-3 (25 μl/well of Fluo-3 AM at 4 μM, Molecular Probes F-1241, in Bath 1 buffer containing 1 mM Probenecid) is added to the 25 μl of Bath 1 remaining in each well after the plate wash and the dye is loaded at 37° C. in the tissue culture incubator for 60-90 min. The fluorescent dye is removed using the plate washer with Bath 1 containing 1 mM Probenecid, leaving 25 μl/well of this solution after the wash. Alternatively, cells can be loaded with the calcium indicator from Molecular Devices (Calcium 3 Assay Reagents, Cat # R7181) adding 5 μl of a 5× solution dye in Bath 1 containing 1 mM Probenecid (10 ml per dye flask cat# R7182 to generate a solution 20×) to 20 μl of the same buffer. After loading for 60 min, the experiment can be run without having to remove the dye.
(§4) Compounds are prepared at a 2× fold concentration in a 96-well plate (round bottom, Costar Corning cat# 3656), by reconstituting the pre-spotted compounds in bath 1 containing 1 mM probenecid. The final concentration DMSO is 0.5%, and the amount of DMSO is normalized across the assay plate. To determine an agonist action of the compounds on muscarinic receptors, the reconstituted compounds are added (25 μl compound/well) to the cell assay plate (containing 25 μl/well) using the multi-channel robotic system of the FLIPR 3 Instrument (Molecular Devices, Sunnyvale, Calif.). To determine a functional inhibitory action of the compounds on muscarinic receptors, the reconstituted compounds are added (25 μl compound/well) to the assay plate and pre-incubated for 15 min prior to adding 25 μl of Carbachol at 3× the EC80 for each muscarinic subtype. Alternatively, the compounds can be co-applied simultaneously with the agonist. In both assay modes, the fluorescence is recorded for 60 sec (excitation wavelength is […] and emission wavelength 540 nm) using the FLIPR 3 instrument.
(§5) The potency, efficacy and selectivity of the muscarinic compounds were evaluated by screening the compound activity across the whole family (M1 to M5 cells). Compounds were also screened for activity on other proteins such as other GPCRs and ion channels to determine selectivity on M4 receptors.
Background: A change in cytosolic calcium serves as a functional read-out for many receptors and channels.

The target in the next experiment is T2, M4 muscarinic receptor (Homo sapiens, UniProt P08173).
T2 construct: expressed in transfected cells; host or cells: CHO (M4-CHO)
T2 sequence (P08173 1-479): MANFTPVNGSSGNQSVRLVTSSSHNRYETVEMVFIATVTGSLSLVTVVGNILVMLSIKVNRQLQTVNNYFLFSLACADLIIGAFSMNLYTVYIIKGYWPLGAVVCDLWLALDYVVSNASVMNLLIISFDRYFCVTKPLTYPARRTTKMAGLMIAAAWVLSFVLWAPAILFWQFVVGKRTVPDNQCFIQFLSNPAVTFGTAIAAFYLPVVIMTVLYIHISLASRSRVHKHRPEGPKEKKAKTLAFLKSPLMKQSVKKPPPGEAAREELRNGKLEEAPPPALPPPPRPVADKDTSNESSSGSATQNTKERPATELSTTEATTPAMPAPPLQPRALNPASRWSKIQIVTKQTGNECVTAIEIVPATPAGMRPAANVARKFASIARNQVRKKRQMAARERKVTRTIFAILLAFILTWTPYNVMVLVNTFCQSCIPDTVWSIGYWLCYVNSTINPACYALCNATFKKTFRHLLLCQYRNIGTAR
Description: Functional mobilization of intracellular calcium (FLIPR) in M4-CHO cells. Type of experiment: cell-based. Here is the method: as §1, §2, §3, §4, §5

[1] abbreviates: Table 4, 100% efficacy is the maximum response obtained with the Carbachol control.
Setting [2] is: Table 4, M1 receptor, calcium mobilization (FLIPR).
The mark [3] stands for this setting: Table 4, M4 receptor, calcium mobilization (FLIPR).
[4] abbreviates: M1 receptor, calcium mobilization.
Setting [5] is: M1 receptor, calcium mobilization, read-out: M1 Efficacy.
The mark [6] stands for this setting: M4 receptor, calcium mobilization.
Setting [7] is: M4 receptor, calcium mobilization, read-out: M4 Efficacy.
Where [8] appears, read: 100% efficacy is the maximum response obtained with the Carbachol control, Table 5.
The mark [9] stands for this setting: Table 4, modulating M1 receptor.
[10] abbreviates: Table 4, modulating M4 receptor.

Read-outs that look alike come from different tables or passages of the source.

Take `CCOC(=O)N1CCC(CN2CCC3(CC2)CN(C(C)=O)c2c(C)cc(C)cc23)CC1` [compound 869]: the Emax on M1 muscarinic receptor (setting [1]) and on M4 muscarinic receptor (setting [1]) was 25 to 100% throughout. Also, on M1 muscarinic receptor (setting [2]), the “M1 Activity” value was “xx (activity was measured to be between 2.0 μM and 5.0 μM)”. The “M4 Activity” value on M4 muscarinic receptor (setting [3]) is “xxx (activity was measured to be less than 2.0 μM)”.
As for `CC(=O)N1CC2(CCN(C3CCCCCCC3)CC2)c2cc(F)ccc21` [compound 248], on M1 muscarinic receptor (setting [4]), the “M1 Activity” value is “xx (activity was measured to be between 0.1 μM and 1.0 μM)”. Further, the Emax on M1 muscarinic receptor (setting [5]) was 65 to 85%; on M4 muscarinic receptor (setting [7]) it was < 65%. For the same compound, on M4 muscarinic receptor (setting [6]), the “M4 Activity” value is “x (activity was measured to be greater than 1.0 μM)”.
Consider `CN(C)C(=O)N1CC2(CCN(C[C@@H]3CCN(c4nccs4)C3)CC2)c2cc(F)ccc21` [compound 1038], for which the Emax on M1 muscarinic receptor (setting [8]) and at M4 muscarinic receptor (setting [8]) was 25 to 100% each time. Moreover, the EC50 at M1 muscarinic receptor (CHO cells expressing M1, calcium mobilization, Table 5) was 2000 to 10000 nM; on M4 muscarinic receptor (CHO cells expressing M4, calcium mobilization, Table 5), < 2000 nM.
On to `O=C(N[C@H]1CC2(CCN(CCC3CC4CC[C@@H]3C4)CC2)c2ccccc21)c1ccoc1` (stereo partly drawn) [compound 798], for which the Emax at M1 muscarinic receptor (setting [1]) and on M4 muscarinic receptor (setting [1]) was < 25% throughout. In addition, on M1 muscarinic receptor (setting [9]), the “M1 Activity” value is given as “x (activity was measured to be greater than 5.0 μM)”. On M4 muscarinic receptor (setting [10]), the “M4 Activity” value is “x (activity was measured to be greater than 5.0 μM)”.
On to `CCOC(=O)N1CCC(CN2CCC3(CC2)CN(C(C)=O)c2c(C(F)(F)F)cccc23)CC1` [compound 529], for which the Emax on M1 muscarinic receptor (setting [1]) and at M4 muscarinic receptor (setting [1]) was 25 to 100% in each case. For the same compound, at M1 muscarinic receptor (setting [9]), the “M1 Activity” value is listed as “x (activity was measured to be greater than 5.0 μM)”. Further, at M4 muscarinic receptor (setting [10]), the “M4 Activity” value is “xx (activity was measured to be between 2.0 μM and 5.0 μM)”.
In the case of `CN(C)C(=O)N1CC2(CCN(C3CCN(c4cccc(F)c4)CC3)CC2)c2cc(F)ccc21` [compound 866], the Emax at M1 muscarinic receptor (setting [1]) and on M4 muscarinic receptor (setting [1]) was 25 to 100% each time. In addition, the “M1 Activity” value at M1 muscarinic receptor (setting [2]) is “xx (activity was measured to be between 2.0 μM and 5.0 μM)”. In addition, the “M4 Activity” value on M4 muscarinic receptor (setting [3]) is listed as “xxx (activity was measured to be less than 2.0 μM)”.
Take `CC(=O)N1CC2(CCN(CC3CCC(C)=CC3C)CC2)c2cc(F)ccc21` (stereo not drawn) [compound 968]: the Emax on M1 muscarinic receptor (setting [1]) and at M4 muscarinic receptor (setting [1]) was < 25% each time. Further, the “M1 Activity” value on M1 muscarinic receptor (setting [2]) is “x (activity was measured to be greater than 5.0 μM)”. For the same compound, the “M4 Activity” value at M4 muscarinic receptor (setting [3]) is on record as “x (activity was measured to be greater than 5.0 μM)”.
`CCOC(=O)N1C2CCC1CC(N1CCC3(CC1)CN(C(=O)N(C)C)c1ccc(F)cc13)C2` (stereo not drawn) [compound 362]: the “M1 Activity” value on M1 muscarinic receptor (setting [4]) is “xx (activity was measured to be between 0.1 μM and 1.0 μM)”. Also, the values for the Emax on M1 muscarinic receptor (setting [5]) and on M4 muscarinic receptor (setting [7]) were 65 to 85% and < 65%, respectively. The “M4 Activity” value at M4 muscarinic receptor (setting [6]) is “x (activity was measured to be greater than 1.0 μM)”.
On to `O=C1CC2(CCN(C3CCCCC3)CC2)c2cc(Cl)ccc21` [compound 715], for which the Emax at M1 muscarinic receptor (setting [1]) and at M4 muscarinic receptor (setting [1]) was 25 to 100% throughout. Moreover, at M1 muscarinic receptor (setting [9]), the “M1 Activity” value is “xxx (activity was measured to be less than 2.0 μM)”. Besides, the “M4 Activity” value on M4 muscarinic receptor (setting [10]) is listed as “xxx (activity was measured to be less than 2.0 μM)”.
Take `COCCOC(=O)N1C2CCC1CC(N1CCC3(CC1)CN(C(C)=O)c1ccc(F)cc13)C2` (stereo not drawn) [compound 76]: at M1 muscarinic receptor (setting [4]), the “M1 Activity” value is reported as “xxx (activity was measured to be less than 0.1 μM)”. Moreover, the Emax at M1 muscarinic receptor (setting [5]) and at M4 muscarinic receptor (setting [7]) was 65 to 85% each time. Further, the “M4 Activity” value at M4 muscarinic receptor (setting [6]) is “xx (activity was measured to be between 0.1 μM and 1.0 μM)”.
As for `CC(=O)N1CC2(CCN(CC3CCN(C(=O)O[C@@H]4CCOC4)CC3)CC2)c2cc(C)ccc21` [compound 403], the EC50 is < 100 nM at M1 muscarinic receptor (M1-CHO cells, calcium mobilization (FLIPR)) and > 1000 nM at M4 muscarinic receptor (M4-CHO cells, calcium mobilization (FLIPR)). Further, the Emax is 65 to 85% on M1 muscarinic receptor (M1-CHO cells, calcium mobilization (FLIPR), read-out: M1 Efficacy) and < 65% on M4 muscarinic receptor (M4-CHO cells, calcium mobilization (FLIPR), read-out: M4 Efficacy).
As to `CCCOC(=O)N1CCC(CN2CCC3(CC2)CN(C(C)=O)c2ccc(F)cc23)CC1` [compound 98], the “M1 Activity” value on M1 muscarinic receptor (setting [4]) is listed as “xxx (activity was measured to be less than 0.1 μM)”. For the same compound, the Emax was 65 to 85% at M1 muscarinic receptor (setting [5]) and < 65% at M4 muscarinic receptor (setting [7]). Further, the “M4 Activity” value on M4 muscarinic receptor (setting [6]) was “xx (activity was measured to be between 0.1 μM and 1.0 μM)”.
